Measurements reported in patent publication US9956262B2, “Use of a bacterium isolated from the genus Pseudoalteromonas, cyclolipopeptides and uses thereof” (priority 2013, dated 2018).
In brackets after ≈: the same amount, converted by molar mass. Read-outs that look alike come from different tables or passages of the source.

Legend:
strain hCg-6 = assay: Antibiotic sensitivity of the strain hCg-6; format: cell-based, Pseudoalteromonas hCg-6; parameters: key to Sensitive to: +: Positive; −: negative; f: slight reaction
E. coli SBS363 = assay: MIC in liquid medium; format: cell-based; settings: 24 h
Method: (§1) The minimum inhibitory concentration (MIC) of the compounds nos. 1, 2, 3, 5, 7 and 8 was evaluated in a liquid medium following the procedure of Wiegand, Hilpert, and Hancock 2008. The spectrum of the target bacteria was extended to certain human pathogens such as the bacteria Salmonella enterica, a clinical strain of Escherichia coli having a beta-3-lactamase activity with an extended spectrum and Pseudomonas aeruginosa. After 24 h of incubation at an optimum temperature, the MICs are evaluated visually.

Y. ruckeri ATCC 29473 = assay: MIC in liquid medium; format: cell-based; settings: 24 h
Method: as §1

V. splendidus LGP 32 = assay: MIC in liquid medium; format: cell-based; settings: 24 h
Method: as §1

[1] = tested on: E. coli β résistante P7 (clinical strain); assay: MIC in liquid medium; format: cell-based; settings: 24 h
Method: as §1

E. coli ML35 = assay: MIC in liquid medium; format: cell-based; settings: 24 h
Method: as §1

A. caviae CIP 7616 = assay: MIC in liquid medium; format: cell-based; settings: 24 h
Method: as §1

[2] = tested on: Pseudomonas aeruginosa ATCC 27853; assay: MIC in liquid medium; format: cell-based; settings: 24 h
Method: as §1

S. enterica CIP 8297 = assay: MIC in liquid medium; format: cell-based; settings: 24 h
Method: as §1

[3] = tested on: collection of strains of Vibrio splendidus isolated from oysters; assay: MIC in liquid medium on a collection of Vibrio splendidus strains isolated from oysters; format: cell-based; settings: collection of V. splendidus strains
Method: The cyclolipopeptide no. 2 was tested on a collection of strains of Vibrio splendidus isolated from oysters. It has minimum inhibitory concentrations from 1.56 to 50 μM. The MICs were defined in a liquid medium by using the procedure of Wiegand, Hilpert, and Hancock 2008.

V. harveyi ORM4 = assay: MIC in liquid medium; format: cell-based; settings: 24 h
Method: as §1

A. hydrophila CIP 7614 = assay: MIC in liquid medium; format: cell-based; settings: 24 h
Method: as §1

CC1(C)S[C@@H]2[C@H](NC(=O)[C@H](N)c3ccc(O)cc3)C(=O)N2[C@H]1C(=O)O [amoxicillin]
resistance/sensitivity of the strain hCg-6 (strain hCg-6): sensitive

CO/N=C(\C(=O)N[C@@H]1C(=O)N2C(C(=O)[O-])=C(C[n+]3cccc4c3CCCC4)CS[C@H]12)c1csc(N)n1 [cefquinom]
resistance/sensitivity of the strain hCg-6 (strain hCg-6): sensitive

CC1=C(C(=O)O)N2C(=O)[C@@H](NC(=O)[C@H](N)c3ccccc3)[C@H]2SC1 [cephalexin]
resistance/sensitivity of the strain hCg-6 (strain hCg-6): resistant

CC=C1NC(=O)C(NC(=O)CC(O)CCCCCCC)C(O)CNC(=O)C(C(O)CN)NC(=O)C(C(O)CN)NC(=O)C(CCCNC(=N)N)NC(=O)C(CC(C)CC)NC(=O)C(CCN)NC1=O (stereo not shown) [cyclolipopeptide 2]
MIC (E. coli SBS363): 0.1 µM (≈ 0.0985 µg/mL) | MIC (Y. ruckeri ATCC 29473): 1.1 µM (≈ 1.08 µg/mL) | MIC (V. splendidus LGP 32): 4.4 µM (≈ 4.33 µg/mL) | MIC [1]: 8.8 µM (≈ 8.67 µg/mL) | MIC (E. coli ML35): 35 µM (≈ 34.5 µg/mL) | MIC (A. caviae CIP 7616): 17.6 µM (≈ 17.3 µg/mL) | MIC [2]: 35.2 µM (≈ 34.7 µg/mL) | MIC (S. enterica CIP 8297): 1.4 µM (≈ 1.38 µg/mL) | minimum inhibitory concentrations [3]: 1.56 to 50 µM

CC=C1NC(=O)C(NC(=O)CCCCCCC)C(O)CNC(=O)C(C(O)CN)NC(=O)C(C(O)CN)NC(=O)C(CCCNC(=N)N)NC(=O)C(CC(C)CC)NC(=O)C(CCN)NC1=O (stereo not shown) [cyclolipopeptide 3]
MIC (E. coli SBS363): 50 µM (≈ 47.1 µg/mL) | MIC (Y. ruckeri ATCC 29473): 50 µM (≈ 47.1 µg/mL) | MIC (V. splendidus LGP 32): 50 µM (≈ 47.1 µg/mL) | MIC (E. coli ML35): 100 µM (≈ 94.1 µg/mL) | MIC (V. harveyi ORM4): 50 µM (≈ 47.1 µg/mL) | MIC (S. enterica CIP 8297): 12.5 µM (≈ 11.8 µg/mL)

CC=C1NC(=O)C(NC(=O)CCCCCCCC)C(O)CNC(=O)C(C(O)CN)NC(=O)C(C(O)CN)NC(=O)C(CCCNC(=N)N)NC(=O)C(CC(C)CC)NC(=O)C(CCN)NC1=O (stereo not shown) [cyclolipopeptide 5]
MIC (E. coli SBS363): 25 µM (≈ 23.9 µg/mL) | MIC (Y. ruckeri ATCC 29473): 6.3 µM (≈ 6.02 µg/mL) | MIC (V. splendidus LGP 32): 6.3 µM (≈ 6.02 µg/mL) | MIC (E. coli ML35): 50 µM (≈ 47.8 µg/mL) | MIC (V. harveyi ORM4): 6.3 µM (≈ 6.02 µg/mL) | MIC (S. enterica CIP 8297): 6.3 µM (≈ 6.02 µg/mL) | MIC (A. hydrophila CIP 7614): 25 µM (≈ 23.9 µg/mL)

CCN1CCN(c2cc3c(cc2F)c(=O)c(C(=O)O)cn3C2CC2)CC1 [enrofloxacin]
resistance/sensitivity of the strain hCg-6 (strain hCg-6): sensitive

CCn1cc(C(=O)O)c(=O)c2cc3c(cc21)OCO3 [oxolinic acid]
resistance/sensitivity of the strain hCg-6 (strain hCg-6): sensitive

Polymyxin B [reference compound]
MIC (E. coli SBS363): 0.2 µM | MIC (Y. ruckeri ATCC 29473): 0.4 µM | MIC (V. splendidus LGP 32): 1.6 µM | MIC [1]: 1.6 µM | MIC (E. coli ML35): 3.1 µM | MIC (V. harveyi ORM4): 25 µM | MIC (A. caviae CIP 7616): 3.1 µM | MIC [2]: 1.6 µM | MIC (S. enterica CIP 8297): 0.8 µM | MIC (A. hydrophila CIP 7614): 0.8 µM

gentamycin
resistance/sensitivity of the strain hCg-6 (strain hCg-6): sensitive

polymyxin
resistance/sensitivity of the strain hCg-6 (strain hCg-6; 50 μg): resistant | Sensitive to (strain hCg-6; 300 ED): −
